The structures appear in SMILES notation.

Here are results for 15 compounds from patent US6867320B2, “Substituted phenylalkanoic acid derivatives and use thereof” (Asahi Kasei Pharma Corporation, priority 2002, dated 2005).

Experiment [1] relates to PGD2 production from IgE-stimulated RBL-2H3 cells. Description: Suppressing action on PGD2 production from IgE-stimulated RBL-2H3 cells. Format: cell-based. The settings on record: Rattus norvegicus, 10 min, IgE/DNP-BSA stimulated RBL-2H3 cells, read-out: PGD2 production suppression ratio. The procedure, abridged:
(§1)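 Rat RBL-2H3 mastocytoma cells, sensitized 30 min with anti-DNP-BSA IgE, then given test compound in 0.5% FBS medium and stimulated with DNP-BSA (100 ng/ml final). Supernatant PGD2 and LTB4 were measured by EIA after 10 min. Suppression ratio is calculated against unstimulated and stimulant-only controls.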

Experiment [2] deals with LTB4 production from IgE-stimulated RBL-2H3 cells. Description: Suppressing action on LTB4 production from IgE-stimulated RBL-2H3 cells. Format: cell-based. The settings on record: Rattus norvegicus, 10 min, IgE/DNP-BSA stimulated RBL-2H3 cells, read-out: LTB4 production suppression ratio. Summed up:
as §1

Experiment [3] deals with IgE-stimulated footpad edema. Description: Mouse IgE-stimulated footpad edema reaction. Format: in vivo. The settings on record: C57BL/6 male mice, oral 0.1 to 500 mg/kg, compared with positive control group. As for the experimental part: 4. Suppressing Effect on Mouse IgE-stimulated Footpad Edema Reaction
Suppression on footpad edema caused by IgE antibody as an allergic stimulant was studied by the following method. Groups of C57BL/6 male mice (9- to 11-week old) each consisting of five mice were used for the test. Anti-DNP-BSA IgE serum was subcutaneously administered in a volume of 20 μl to right hind leg footpad of each mouse one day before the test. A test compound was suspended or dissolved in purified water containing 0.5% methylcellulose and orally administered to the test animals at 0.1 to 500 mg/0.2 ml/kg. To the control group, purified water containing 0.5% methylcellulose was administered in a similar manner, which was not added with the test compound. Two hours after the administration of the test compound, 0.2 ml of a solution of DNP-BSA dissolved in physiological saline (Otsuka Pharmaceutical) at 2.5 μg/ml was intravenously administered. The thickness of right hind leg footpad was measured by using a digital thickness gauge (MITSUTOYO) 10, 15, 20, and 30 minutes after the administration of DNP-BSA. A difference of the thickness of footpad measured above and the thickness before the administration of the test compound measured beforehand was regarded as a thickness of edema.
For the thickness of the edema at 10, 15, 20 and 30 minutes after the DNP-BSA administration, a graph was prepared indicating time in abscissa and the edema thickness in ordinate, and edema thickness AUC […] was obtained by calculation according to the following equation. Edema thickness AUC (mm·minute)=1/2×10×A+5×(A+B)/2+5×(B+C)/2+10×(C+D)/2 • A: Edema thickness 10 minutes after DNP-BSA administration • B: Edema thickness 15 minutes after DNP-BSA administration • C: Edema thickness 20 minutes after DNP-BSA administration • D: Edema thickness 30 minutes after DNP-BSA administration
A suppressing ratio on edema of a test compound was obtained by calculation in accordance with the following equation. Edema suppression ratio (%)=[1−B/A]×100 • A: Edema thickness AUC of positive control • B: Edema thickness AUC of test compound administered group (2) Measurement Results

In experiment [4] the test system is zymosan-stimulated footpad edema. Briefly: Mouse zymosan-stimulated footpad edema reaction. Format: in vivo. The settings on record: ICR female mice, oral 0.1 to 500 mg/kg, compared with positive control group. The procedure, abridged: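 Female ICR mice (6–7 weeks, n=8) dosed orally at 0.1 to 500 mg/kg in 0.5% methylcellulose; 1 h later zymosan (1 mg/ml, 0.02 ml) injected s.c. into right hind footpad. Edema volume at 1 and 2 h gave AUC to 2 h; suppression (%) calculated against positive control AUC.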

Experiment [5] concerns PGE2 production from IL-1β-stimulated MG-63 cells. Briefly: Suppressing action on PGE2 production from IL-1β-stimulated MG-63 cells. Format: cell-based. The settings on record: Homo sapiens, IL-1β 1 ng/ml, 18 hours, read-out: PGE2 production suppression ratio. Summed up:
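Human osteosarcoma MG-63 cells (2×10^4/well) switched to 0.5% FBS medium, treated with compound, then stimulated with IL-1β at 1 ng/ml final for 18 h. Supernatant PGE2 measured by EIA; suppression ratio calculated against stimulated and unstimulated wells.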

Take `O=C(O)CCc1ccc(OC2CCCC2)c(-c2ccc3ccccc3c2)c1` [Compound 043, 3-[4-cyclopentyloxy-3-(naphthalen-2-yl)phenyl]propionic acid]: the inhibition at 0.4 µM in experiment [1], in experiment [2] and in experiment [5] was not below 50% in each case. In addition, the “suppression of footpad edema caused by IgE stimulation” value (from here on “suppression … by IgE stimulation”) in experiment [3] is “suppressed the footpad edema”. Moreover, the “suppression of footpad edema caused by zymosan” value (“suppression … by zymosan” for short) in experiment [4] is “suppressed footpad edema”.
Turning to `O=C(O)CCc1ccc(OCCC2CCCC2)c(-c2ccc3ccccc3c2)c1` [Compound 047, 3-[4-(2-cyclopentylethyloxy)-3-(naphthalen-2-yl)phenyl]propionic acid], the inhibition at 0.4 µM in experiment [1], in experiment [2] and in experiment [5] was not below 50% each time. Also, the “suppression … by IgE stimulation” value in experiment [3] is “suppressed the footpad edema”. Besides, in experiment [4], the “suppression … by zymosan” value is listed as “suppressed footpad edema”.
In the case of `O=C(O)CCc1ccc(OCCc2ccccc2F)c(-c2ccc3ccccc3c2)c1` [Compound 053, 3-{4-[2-(2-fluorophenyl)ethyloxy]-3-(naphthalen-2-yl)phenyl}propionic acid], the inhibition at 0.4 µM in experiment [1], in experiment [2] and in experiment [5] was not below 50% in each case. For the same compound, in experiment [3], the “suppression … by IgE stimulation” value is “suppressed the footpad edema”. In experiment [4], the “suppression … by zymosan” value is listed as “suppressed footpad edema”.
For `O=C(O)CCc1ccc(OCC2CCCC2)c(-c2ccc3[nH]ccc3c2)c1` [Compound 100, 3-[4-cyclopentylmethyloxy-3-(1H-indol-5-yl)phenyl]propionic acid], the inhibition at 0.4 µM in experiment [1], in experiment [2] and in experiment [5] was not below 50% each time. The “suppression … by IgE stimulation” value in experiment [3] was “suppressed the footpad edema”. For the same compound, the “suppression … by zymosan” value in experiment [4] was “suppressed footpad edema”.
`Cn1ccc2cc(-c3cc(CCC(=O)O)ccc3OC3CCCC3)ccc21` [Compound 108, 3-[4-cyclopentyloxy-3-(1-methyl-1H-indol-5-yl)phenyl]propionic acid]: the inhibition at 0.4 µM in experiment [1], in experiment [2] and in experiment [5] was not below 50% each time. For the same compound, the “suppression … by IgE stimulation” value in experiment [3] is recorded as “suppressed the footpad edema”. Moreover, the “suppression … by zymosan” value in experiment [4] is “suppressed footpad edema”.
Take `CC(Oc1ccc(CCC(=O)O)cc1-c1ccc2[nH]ccc2c1)c1ccccc1` (stereo not drawn) [Compound 132, 3-[3-(1H-indol-5-yl)-4-(1-phenylethyloxy)phenyl]propionic acid]: the inhibition at 0.4 µM in experiment [1], in experiment [2] and in experiment [5] was not below 50% throughout. For the same compound, in experiment [3], the “suppression … by IgE stimulation” value is reported as “suppressed the footpad edema”. Moreover, in experiment [4], the “suppression … by zymosan” value is “suppressed footpad edema”.
Consider `O=C(O)CCc1ccc(OCc2ccc(F)cc2)c(-c2ccc3[nH]ccc3c2)c1` [Compound 146, 3-[4-(4-fluorophenylmethyloxy)-3-(1H-indol-5-yl)phenyl]propionic acid], for which the inhibition at 0.4 µM in experiment [1], in experiment [2] and in experiment [5] was not below 50% each time. The “suppression … by IgE stimulation” value in experiment [3] was “suppressed the footpad edema”. Further, the “suppression … by zymosan” value in experiment [4] is listed as “suppressed footpad edema”.
Consider `O=C(O)CCc1ccc(OCC2CC3CCC2C3)c(-c2ccc3[nH]ccc3c2)c1` (stereo not drawn) [Compound 177, 3-[4-(bicyclo[2,2,1]hept-2-ylmethyloxy)-3-(1H-indol-5-yl)phenyl]propionic acid], for which the inhibition at 0.4 µM in experiment [1], in experiment [2] and in experiment [5] was not below 50% in each case. In experiment [3], the “suppression … by IgE stimulation” value is listed as “suppressed the footpad edema”. Moreover, the “suppression … by zymosan” value in experiment [4] was “suppressed footpad edema”.
As to `CC(C)C(C)COc1ccc(CCC(=O)O)cc1-c1ccc2[nH]ccc2c1` (stereo not drawn) [Compound 181, 3-[4-(2,3-dimethylbutyloxy)-3-(1H-indol-5-yl)phenyl]propionic acid], the inhibition at 0.4 µM in experiment [1], in experiment [2] and in experiment [5] was not below 50% in each case. The “suppression … by IgE stimulation” value in experiment [3] is listed as “suppressed the footpad edema”. Moreover, the “suppression … by zymosan” value in experiment [4] is given as “suppressed footpad edema”.
In the case of `CCCCOc1ccc(COc2ccc(CCC(=O)O)cc2-c2ccc3[nH]ccc3c2)cc1` [Compound 186, 3-{4-[4-(butyloxy)phenylmethyloxy]-3-(1H-indol-5-yl)phenyl}propionic acid], the inhibition at 0.4 µM in experiment [1], in experiment [2] and in experiment [5] was not below 50% each time. Further, the “suppression … by IgE stimulation” value in experiment [3] is “suppressed the footpad edema”. Besides, the “suppression … by zymosan” value in experiment [4] is “suppressed footpad edema”.
On to `O=C(O)CCc1ccc(OCCCc2ccccc2)c(-c2ccc3[nH]ccc3c2)c1` [Compound 220, 3-[3-(1H-indol-5-yl)-4-(3-phenylpropyloxy)phenyl]propionic acid], for which the inhibition at 0.4 µM in experiment [1], in experiment [2] and in experiment [5] was not below 50% throughout. In addition, the “suppression … by IgE stimulation” value in experiment [3] is “suppressed the footpad edema”. In addition, the “suppression … by zymosan” value in experiment [4] is given as “suppressed footpad edema”.
With `CN(CCOc1ccc(CCC(=O)O)cc1-c1ccc2[nH]ccc2c1)c1ccccc1` [Compound 229, 3-{3-(1H-indol-5-yl)-4-[2-(N-phenyl-N-methylamino)-ethyloxy]phenyl}propionic acid], the inhibition at 0.4 µM in experiment [1], in experiment [2] and in experiment [5] was not below 50% in each case. Moreover, the “suppression … by IgE stimulation” value in experiment [3] is reported as “suppressed the footpad edema”. Moreover, the “suppression … by zymosan” value in experiment [4] is recorded as “suppressed footpad edema”.
As to `O=C(O)CCc1ccc(OCC2CCCCC2)c(-c2ccc3[nH]ccc3c2)c1` [Compound 231, 3-[4-cyclohexylmethyloxy-3-(1H-indol-5-yl)phenyl]propionic acid], the inhibition at 0.4 µM in experiment [1], in experiment [2] and in experiment [5] was not below 50% in each case. The “suppression … by IgE stimulation” value in experiment [3] is “suppressed the footpad edema”. For the same compound, the “suppression … by zymosan” value in experiment [4] was “suppressed footpad edema”.
As to `Cn1ccc2cc(-c3cc(CCC(=O)O)ccc3OCC3CCCCC3)ccc21` [Compound 233, 3-[4-cyclohexylmethyloxy-3-(1-methyl-1H-indol-5-yl)phenyl]propionic acid], the inhibition at 0.4 µM in experiment [1], in experiment [2] and in experiment [5] was not below 50% in each case. Also, in experiment [3], the “suppression … by IgE stimulation” value is recorded as “suppressed the footpad edema”. Also, the “suppression … by zymosan” value in experiment [4] was “suppressed footpad edema”.
`CCn1ccc2cc(-c3cc(CCC(=O)O)ccc3OCC3CCCC3)ccc21` [Compound 236, 3-[4-cyclopentylmethyloxy-3-(1-ethyl-1H-indol-5-yl)phenyl]propionic acid]: the inhibition at 0.4 µM in experiment [1], in experiment [2] and in experiment [5] was not below 50% each time. For the same compound, in experiment [3], the “suppression … by IgE stimulation” value is recorded as “suppressed the footpad edema”. For the same compound, in experiment [4], the “suppression … by zymosan” value is on record as “suppressed footpad edema”.
